In ChEMBL document CHEMBL2074554, “Expression of the apical conjugate export pump, Mrp2, in the polarized hepatoma cell line, WIF-B” (Hepatology, 1998):

B1: ATP-binding cassette sub-family C member 2 (Rattus norvegicus) (protein)
chain: MDKFCNSTFWDLSLLESPEADLPLCFEQTVLVWIPLGFLWLLAPWQLYSVYRSRTKRSSITKFYLAKQVFVVFLLILAAIDLSLALTEDTGQATVPPVRYTNPILYLCTWLLVLAVQHSRQWCVRKNSWFLSLFWILSVLCGVFQFQTLIRALLKDSKSNMAYSYLFFVSYGFQIVLLILTAFSGPSDSTQTPSVTASFLSSITFSWYDRTVLKGYKHPLTLEDVWDIDEGFKTRSVTSKFEAAMTKDLQKARQAFQRRLQKSQRKPEATLHGLNKKQSQSQDVLVLEEAKKKSEKTTKDYPKSWLIKSLFKTFHVVILKSFILKLIHDLLVFLNPQLLKLLIGFVKSSNSYVWFGYICAILMFAVTLIQSFCLQSYFQHCFVLGMCVRTTVMSSIYKKALTLSNLARKQYTIGETVNLMSVDSQKLMDATNYMQLVWSSVIQITLSIFFLWRELGPSILAGVGVMVLLIPVNGVLATKIRNIQVQNMKNKDKRLKIMNEILSGIKILKYFAWEPSFQEQVQGIRKKELKNLLRFGQLQSLLIFILQITPILVSVVTFSVYVLVDSANVLNAEKAFTSITLFNILRFPLSMLPMVTSSILQASVSVDRLERYLGGDDLDTSAIRRVSNFDKAVKFSEASFTWDPDLEATIQDVNLDIKPGQLVAVVGTVGSGKSSLVSAMLGEMENVHGHITIQGSTAYVPQQSWIQNGTIKDNILFGSEYNEKKYQQVLKACALLPDLEILPGGDMAEIGEKGINLSGGQKQRVSLARAAYQDADIYILDDPLSAVDAHVGKHIFNKVVGPNGLLAGKTRIFVTHGIHFLPQVDEIVVLGKGTILEKGSYRDLLDKKGVFARNWKTFMKHSGPEGEATVNNDSEAEDDDDGLIPTMEEIPEDAASLAMRRENSLRRTLSRSSRSSSRRGKSLKNSLKIKNVNVLKEKEKEVEGQKLIKKEFVETGKVKFSIYLKYLQAVGWWSILFIILFYGLNNVAFIGSNLWLSAWTSDSDNLNGTNNSSSHRDMRIGVFGALGLAQGICLLISTLWSIYACRNASKALHGQLLTNILRAPMRFFDTTPTGRIVNRFSGDISTVDDLLPQTLRSWMMCFFGIAGTLVMICMATPVFAIIIIPLSILYISVQVFYVATSRQLRRLDSVTKSPIYSHFSETVTGLPIIRAFEHQQRFLAWNEKQIDINQKCVFSWITSNRWLAIRLELVGNLVVFCSALLLVIYRKTLTGDVVGFVLSNALNITQTLNWLVRMTSEAETNIVAVERISEYINVENEAPWVTDKRPPADWPRHGEIQFNNYQVRYRPELDLVLKGITCNIKSGEKVGVVGRTGAGKSSLTNCLFRILESAGGQIIIDGIDVASIGLHDLRERLTIIPQDPILFSGSLRMNLDPFNKYSDEEVWRALELAHLRSFVSGLQLGLLSEVTEGGDNLSIGQRQLLCLGRAVLRKSKILVLDEATAAVDLETDSLIQTTIRKEFSQCTVITIAHRLHTIMDSDKIMVLDNGKIVEYGSPEELLSNRGSFYLMAKEAGIENVNHTEL

Assays:
[1] = biological target: ATP-binding cassette sub-family C member 2 (Rattus norvegicus, UniProt Q63120); assay: TP_TRANSPORTER: inhibition of Fluo-3 uptake (Fluo-3: 4.4 uM, PSC 833: 10 uM) in bile canalicular membrane vesicles from Wistar rat; assay type: functional, cell membranes, Bile canalicular membrane vesicle
[2] = biological target: ABCC2 (MRP2; ATP-binding cassette sub-family C member 2) (Rattus norvegicus, UniProt Q63120); assay: TP_TRANSPORTER: inhibition of Fluo-3 secretion into apical vacuoles (Fluo-3: 1 uM, PSC 833: 50 uM) in WIF-B cells; assay type: functional, cell-based, WIF-B cell; conditions: probe Fluo-3 (1 uM)
[3] = substrate: Cc1ccc(N(CC(=O)O)CC(=O)O)c(OCCOc2cc(-c3c4cc(Cl)c(=O)cc-4oc4cc(O)c(Cl)cc34)ccc2N(CC(=O)O)CC(=O)O)c1; assay: TP_TRANSPORTER: uptake in bile canalicular membrane vesicles from Wistar/TR- rat; assay type: functional, cell membranes, Bile canalicular membrane vesicle

Molecule | Activity [1] | inhibition at 50 µM [2] | Km [3]
C/C=C/C[C@@H](C)C(=O)[C@H]1C(=O)N[C@@H](C(C)C)C(=O)N(C)CC(=O)N(C)[C@@H](CC(C)C)C(=O)N[C@@H](C(C)C)C(=O)N(C)[C@@H](CC(C)C)C(=O)N[C@@H](C)C(=O)N[C@H](C)C(=O)N(C)[C@@H](CC(C)C)C(=O)N(C)[C@@H](CC(C)C)C(=O)N(C)[C@@H](C(C)C)C(=O)N1C [VALSPODAR] | is not an inhibitor [-] | 50% | –
B1 | – | – | 3.7 µM
